This passage reports solubility results from EP0037780A1, “Alcoxy-propanol amines useful as medicines, and process for their preparation” (PIERRE FABRE S.A., priority 1980, dated 1981).

≈ marks a conversion by molar mass, not a printed value. Read-outs that look alike come from different tables or passages of the source.

The nature of this data set: Solubility. In kind it is physicochemical. Particulars: read-out: Solubilité. The text has this:
Chromatographie sur plaque : • - support : gel de silice 60 F 254 Merck • - solvant : chloroforme - méthanol - ammoniaque 80/18/2 • - révélation : iode • - Rf : 0,65 Solubilité : soluble à 5 % dans l'eau.
Chromatographie sur plaque : • - support : gel de silice 60 F 254 Merck • - solvant : chloroforme - méthanol - ammoniaque 80/18/2 • - révélation : iode • - Rf : 0,6 Solubilité : soluble à 1 % dans l'eau.
Chromatographie sur plaque : • - support : gel de silice 60 F 254 Merck • - solvant : chloroforme - méthanol - ammoniaque 80/18/2 • - révélation : Réactif de Dragendorf et iode • - Rf : 0,65 Solubilité : soluble à 2 % dans une solution aqueuse d'acide chlorhydrique (0,1 N) et à 1 % dans le propylène glycol.

For `CC(C)=CCCC(C)CCOCC(O)CNC(C)C` (stereo not shown) [Exemple 3, isopropylamino-3 (diméthyl-3,7 octène-6 yloxy)-1 propanol-2], the solubility by setting is: (0.1 n aqueous hydrochloric acid, dans une solution aqueuse d'acide chlorhydrique (0,1 N)) 20 mg/mL (≈ 73.7 mM); (propylene glycol, organic solvent or mixture, dans le propylène glycol) 10 mg/mL (≈ 36.8 mM).
`CCCCOCC(O)CNC(C)(C)C` (stereo not shown) [Exemple 2, tertiobutylamino-3 butoxy-1 propanol-2]: where the note is “water, dans l'eau”, the solubility was 10 mg/mL (≈ 49.2 mM).
On the same count and under the same terms, with `CCCCOCC(O)CNC(C)C` (stereo not shown) [Exemple 1, isopropylamino-3 butoxy-1 propanol-2] the figure was 50 mg/mL (≈ 264 mM).
